Data on 30 compounds can be found in US20250333405A1, “ANTAGONISTS OF GPR39 PROTEIN” (VASOCARDEA, INC., priority 2024, published 2025).

Bounds are passed on as bounds.

For one assay, the target named is T1, human GPR39 receptor (Homo sapiens, UniProt O43194).
T1 construct: PC3 Cells, Expressing the Endogenous Human GPR39 Receptor; endogenous in cells; host or cells: PC3 (human prostate adenocarcinoma) cells
T1 sequence (O43194 1-453): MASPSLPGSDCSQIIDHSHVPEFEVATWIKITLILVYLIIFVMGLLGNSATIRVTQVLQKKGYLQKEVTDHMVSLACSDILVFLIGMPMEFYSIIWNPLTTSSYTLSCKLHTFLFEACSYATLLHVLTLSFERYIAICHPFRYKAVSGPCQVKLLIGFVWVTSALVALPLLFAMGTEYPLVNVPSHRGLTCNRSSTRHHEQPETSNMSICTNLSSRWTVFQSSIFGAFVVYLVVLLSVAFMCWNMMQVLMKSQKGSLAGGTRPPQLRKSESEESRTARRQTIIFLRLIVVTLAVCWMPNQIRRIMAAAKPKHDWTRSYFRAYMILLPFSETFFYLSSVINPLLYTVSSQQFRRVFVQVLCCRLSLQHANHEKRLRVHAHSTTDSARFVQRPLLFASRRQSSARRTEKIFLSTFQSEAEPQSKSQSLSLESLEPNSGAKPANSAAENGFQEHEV
The assay can be described thus: Intracellular calcium response (FLIPR, Calcium-6) in PC3 cells, antagonism of agonist C3 (TC-G 1008) at EC90. The format is cell-based. To be noted: functional pKi (-Log10Ki) by modified Cheng-Prusoff from IC50; PC3 cells endogenously expressing human GPR39; 30 μM ZnCl2; agonist C3 (TC-G 1008) at EC90 1.5 μM. In a few lines: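 Calcium-6-loaded cells in HEPES buffer pH 7.4 were given compound with 30 μM final ZnCl2 (0.32% DMSO) for 10 min, then challenged with 1.5 μM C3. Baseline-subtracted peak fluorescence expressed as % inhibition of the C3 response; IC50 from four-parameter logistic fit, reported as binned fpKi.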
`O=C(Nc1ccc(-c2nnc(N3CCC(F)(F)CC3)o2)c(N2CCCC2)c1)C1CC1` [Example 100, N-[4-[5-(4,4-difluoropiperidin-1-yl)-1,3,4-oxadiazol-2-yl]-3-pyrrolidin-1-ylphenyl]cyclopropanecarboxamide]: the fpKi activity result is recorded as “+ +”.

The assay is the same for the next values; noted with them: functional pKi (-Log10Ki) by modified Cheng-Prusoff from IC50; PC3 cells endogenously expressing human GPR39; 30 μM ZnCl2; agonist C3 (TC-G 1008) at EC90 1.5 μM; read-out: fpKi activity.
Turning to `Cc1nnc(-c2ccc(C(=O)N3CCC(C(F)(F)F)CC3)c(-c3cccc(C4CC4)n3)c2)[nH]1` [Example 71, [2-(6-cyclopropylpyridin-2-yl)-4-(5-methyl-4H-1,2,4-triazol-3-yl)phenyl]-[4-(trifluoromethyl)piperidin-1-yl]methanone], the Ki was not above 50.1 nM. Regarding `Cc1nnc(-c2ccc(C(=O)N3CCC(C(F)(F)F)CC3)c(-c3nc(C(F)(F)F)cs3)c2)[nH]1` [Example 72, [4-(5-methyl-4H-1,2,4-triazol-3-yl)-2-[4-(trifluoromethyl)-1,3-thiazol-2-yl]phenyl]-[4-(trifluoromethyl)piperidin-1-yl]methanone], the Ki is not above 50.1 nM. With `Cc1nnc(-c2ccc(C(=O)N3CCC(C(F)(F)F)CC3)c(-c3cccc(C(F)(F)F)n3)c2)[nH]1` [Example 73, [4-(5-methyl-4H-1,2,4-triazol-3-yl)-2-[6-(trifluoromethyl)pyridin-2-yl]phenyl]-[4-(trifluoromethyl)piperidin-1-yl]methanone], the Ki is not above 50.1 nM.

For the compound `Cc1nnc(-c2ccc(C(=O)N3CCC(F)(F)CC3)c(-c3cccc(C(C)C)n3)c2)[nH]1` [Example 74], the Ki was not above 50.1 nM. As to `Cc1nnc(-c2ccc(C(=O)N3CCC(F)(F)CC3)c(-c3cccc(C(F)(F)F)n3)c2)[nH]1` [Example 75, (4,4-difluoropiperidin-1-yl)-[4-(5-methyl-4H-1,2,4-triazol-3-yl)-2-[6-(trifluoromethyl)pyridin-2-yl]phenyl]methanone], the Ki is not above 50.1 nM.

Regarding `Cc1nnc(-c2ccc(C(=O)N3CCC(F)(F)CC3)c(-c3nc(C(F)(F)F)cs3)c2)[nH]1` [Example 76, (4,4-difluoro-1-piperidyl)-[4-(5-methyl-4H-1,2,4-triazol-3-yl)-2-[4-(trifluoromethyl)thiazol-2-yl]phenyl]methanone], the Ki is not above 50.1 nM. Regarding `Cc1nnc(-c2ccc(C(=O)N3CCC(F)(F)CC3)c(-c3nccc(C(F)(F)F)n3)c2)[nH]1` [Example 77, (4,4-difluoro-1-piperidyl)-[4-(5-methyl-4H-1,2,4-triazol-3-yl)-2-[4-(trifluoromethyl)pyrimidin-2-yl]phenyl]methanone], the Ki is not above 50.1 nM. The same measure, in the same setting: as for `Cc1nnc(-c2ccc(C(=O)N3CCC(F)(F)CC3)c(-c3cccc(C4CC4)n3)c2)[nH]1` [Example 78, [2-(6-cyclopropyl-2-pyridyl)-4-(5-methyl-4H-1,2,4-triazol-3-yl)phenyl]-(4,4-difluoro-1-piperidyl)methanone], the figure is not above 50.1 nM; as for `Cc1nnc(-c2ccc(C(=O)N3CCC(F)(F)CC3)c(-c3cccc(C(C)(C)C)n3)c2)[nH]1` [Example 79, [2-(6-tert-butyl-2-pyridyl)-4-(5-methyl-4H-1,2,4-triazol-3-yl)phenyl]-(4,4-difluoro-1-piperidyl)methanone], not above 50.1 nM. As to `Cc1nnc(-c2ccc(C(=O)N3CCC(OC(F)(F)F)CC3)c(-c3ccn(C(C)(C)C)n3)c2)[nH]1` [Example 80, [2-(1-tert-butylpyrazol-3-yl)-4-(5-methyl-4H-1,2,4-triazol-3-yl)phenyl]-[4-(trifluoromethoxy)-1-piperidyl]methanone], the Ki is not above 50.1 nM. `CCOC(=O)c1csc(-c2cc(C#N)ccc2C(=O)N2CCC(F)(F)CC2)n1` [Example 81, ethyl 2-[5-cyano-2-(4,4-difluoropiperidine-1-carbonyl)phenyl]thiazole-4-carboxylate]: the Ki was 63.1 to 251 nM.

With `CCOC(=O)c1csc(-c2cc(-c3nnc(C)[nH]3)ccc2C(=O)N2CCC(F)(F)CC2)n1` [Example 82, ethyl 2-[2-(4,4-difluoropiperidine-1-carbonyl)-5-(5-methyl-4H-1,2,4-triazol-3-yl)phenyl]thiazole-4-carboxylate], the Ki is 1260 to 6310 nM. Consider `CC(C)n1ccc(-c2cc(-c3cc(C(F)(F)F)n[nH]3)ccc2C(=O)N2CCC(F)(F)CC2)n1` [Example 84, (4,4-difluoro-1-piperidyl)-[2-(1-isopropylpyrazol-3-yl)-4-[5-(trifluoromethyl)-1H-pyrazol-3-yl]phenyl]methanone], for which the Ki is 316 to 1000 nM. Turning to `CC(C)c1cc(-c2ccc(C(=O)N3CCC(F)(F)CC3)c(-c3ccn(C(C)C)n3)c2)[nH]n1` [Example 85, (4,4-difluoro-1-piperidyl)-[2-(1-isopropylpyrazol-3-yl)-4-(5-isopropyl-1H-pyrazol-3-yl)phenyl]methanone], the Ki fell in the range of 1260 to 6310 nM.

With `Cc1cc(-c2ccc(C(=O)N3CCC(F)(F)CC3)c(-c3ccn(C(C)C)n3)c2)[nH]n1` [Example 86, (4,4-difluoro-1-piperidyl)-[2-(1-isopropylpyrazol-3-yl)-4-(5-methyl-1H-pyrazol-3-yl)phenyl]methanone], the Ki is not above 50.1 nM. Regarding `Cc1cnc(-c2ccc(C(=O)N3CCC(F)(F)CC3)c(-c3ccn(C(C)C)n3)c2)[nH]1` [Example 87, (4,4-difluoro-1-piperidyl)-[2-(1-isopropylpyrazol-3-yl)-4-(5-methyl-1H-imidazol-2-yl)phenyl]methanone], the Ki lay within 63.1 to 251 nM.

As for `O=C(Nc1ccc(C(=O)N2CCS(=O)(=O)CC2)c(C2=CCCC2)c1)C1CC1` [Example 88, N-[3-(cyclopenten-1-yl)-4-(1,1-dioxo-1,4-thiazinane-4-carbonyl)phenyl]cyclopropanecarboxamide], the Ki lay within 316 to 1000 nM. In the case of `CN1CCN(C(=O)c2ccc(NC(=O)C3CC3)cc2C2=CCCC2)C(c2ccccc2)C1` (stereo not drawn) [Example 89, N-[3-(cyclopenten-1-yl)-4-(4-methyl-2-phenylpiperazine-1-carbonyl)phenyl]cyclopropanecarboxamide], the Ki is 63.1 to 251 nM.

Regarding `O=C(Nc1ccc(C(=O)N2CCS(=O)(=O)CC2)c(C2CCCC2)c1)C1CC1` [Example 90, N-[3-cyclopentyl-4-(1,1-dioxo-1,4-thiazinane-4-carbonyl)phenyl]cyclopropanecarboxamide], the Ki is more than 6310 nM.

With `CN1CCN(C(=O)c2ccc(NC(=O)C3CC3)cc2C2CCCC2)C(c2ccccc2)C1` (stereo not drawn) [Example 91, N-[3-cyclopentyl-4-(4-methyl-2-phenylpiperazine-1-carbonyl)phenyl]cyclopropanecarboxamide], the Ki lay within 316 to 1000 nM. In the case of `Cc1cc(C(=O)N2CCN(C)CC2c2ccccc2)c(N2CCCC2)cc1NC(=O)C1CC1` (stereo not drawn) [Example 92, N-[2-methyl-4-(4-methyl-2-phenylpiperazine-1-carbonyl)-5-pyrrolidin-1-ylphenyl]cyclopropanecarboxamide], the Ki is more than 6310 nM.

For `Cc1cc(C(=O)N2CCS(=O)(=O)CC2)c(N2CCCC2)cc1NC(=O)C1CC1` [Example 93, N-[4-(1,1-dioxo-1,4-thiazinane-4-carbonyl)-2-methyl-5-pyrrolidin-1-ylphenyl]cyclopropanecarboxamide], the Ki was more than 6310 nM. Turning to `Cc1c(NC(=O)C2CC2)ccc(C(=O)N2CCS(=O)(=O)CC2)c1N1CCCC1` [Example 94, N-[4-(1,1-dioxo-1,4-thiazinane-4-carbonyl)-2-methyl-3-pyrrolidin-1-ylphenyl]cyclopropanecarboxamide], the Ki was 316 to 1000 nM. Same read-out and setting: as for `CN1CCN(C(=O)c2cc(Cl)c(NC(=O)C3CC3)cc2N2CCCC2)C(c2ccccc2)C1` (stereo not drawn) [Example 95, N-[2-chloro-4-(4-methyl-2-phenylpiperazine-1-carbonyl)-5-pyrrolidin-1-ylphenyl]cyclopropanecarboxamide], the figure is more than 6310 nM; as for `O=C(Nc1cc(N2CCCC2)c(C(=O)N2CCS(=O)(=O)CC2)cc1Cl)C1CC1` [Example 96, N-[2-chloro-4-(1,1-dioxo-1,4-thiazinane-4-carbonyl)-5-pyrrolidin-1-ylphenyl]cyclopropanecarboxamide], 1260 to 6310 nM; as for `CN1CCN(C(=O)c2ccc(NC(=O)C3CC3)c(Cl)c2N2CCCC2)C(c2ccccc2)C1` (stereo not drawn) [Example 97, N-[2-chloro-4-(4-methyl-2-phenylpiperazine-1-carbonyl)-3-pyrrolidin-1-ylphenyl]cyclopropanecarboxide], 316 to 1000 nM.

As for `O=C(Nc1ccc(C(=O)N2CCS(=O)(=O)CC2)c(N2CCCC2)c1Cl)C1CC1` [Example 98, N-[2-chloro-4-(1,1-dioxo-1,4-thiazinane-4-carbonyl)-3-pyrrolidin-1-ylphenyl]cyclopropanecarboxamide], the Ki is 316 to 1000 nM.

With `O=C(Nc1ccc(-c2nnc(N3CCCC3)o2)c(N2CCCC2)c1)C1CC1` [Example 99, N-[3-pyrrolidin-1-yl-4-(5-pyrrolidin-1-yl-1,3,4-oxadiazol-2-yl)phenyl]cyclopropanecarboxamide], the Ki is more than 6310 nM. On to `CC(=O)Nc1ccc(-c2nccc(N3CCCC3)n2)c(N2CCCC2)c1` [Example 101, N-[3-pyrrolidin-1-yl-4-(4-pyrrolidin-1-ylpyrimidin-2-yl)phenyl]acetamide], for which the Ki is more than 6310 nM.
